Results on one molecule are retold here after patent publication US20150150892A1, “METHODS AND PRODUCTS RELATED TO LUNG CANCER” (Massachusetts Institute of Technology, priority 2012, published 2015).

In assay [1] the test system is KrasLSL-G12D/wt;p53flox/flox (KP) lung tumors. Put plainly: MicroCT lung tumor volume in KP mice. It counts as in vivo, mouse. The text has this: FIG. 3: Bortezomib induces acute lung tumor regression in KrasLSL-G12D/wt;p53flox/flox (KP) mice, but not in KrasLSL-G12D/wt (K) mice. (3A and 3C) representative microCT images (n=6) of KP (3A) and K (3C) lung tumors prior to pre-treatment (D0) and 4 days (D4) after a single dose of vehicle control or bortezomib. (3 B and 3D) Quantification of tumor volume change (D4 compared with D0) in control- and bortezomib-treated mice. Each bar represents an individual tumor. P<10^−6 in KP mice (3B); P>0.05 in K mice (3D).
FIG. 5: Bortezomib increases survival in KP mice. (5A and 5B) Kaplan-Meier survival curve of vehicle control and bortezomib-treated KP (5A) and K (5B) mice. Arrows indicate weekly 1 mg/kg bortezomib regimen. (5C) quantification of lung tumor volume of control- and bortezomib-treated KP mice. From 10 weeks after Adeno-Cre infection, lungs were imaged by microCT to measure individual tumor volumes (n=4). Data points represent means of fold change and SD relative to 10 weeks (set to 1). Arrows indicate bortezomib injection. D, CC3 staining (×200) in lung tumors receiving 3 doses of control (“C”) and 1 final dose of bortezomib (“B,” left) or 4 doses of bortezomib (right). Tumors were harvested 48 hours after the last treatment (n=4).
The Massachusetts Institute of Technology (Cambridge, Mass.) Institutional Animal Care and Use Committee approved all animal studies and procedures. […]
At indicated time points, mice were scanned for 15 min under isoflurane anesthesia, using a small animal eXplore Locus microCT (GE Healthcare) at 45-μm resolution, 80 kV, with 450-mA current (47). […] Mice were imaged for 60 seconds, and signals in the lung were quantified using Xenogen software.
To understand the relevance of these findings in vivo, we examined bortezomib-mediated NF-κB inhibition in both KP and K models of lung cancer. […] Individual lung tumors were monitored using micro-computed tomography (microCT) imaging prior to treatment (D0) and 4 days post treatment (D4). […]

The test system of the next assay is KP and KP^M cell lines. As to the kind of experiment: Cell viability assay (Cell Titer Aqueous Kit). It counts as cell-based, mouse. The settings on record: increasing doses, 24 hours, KP and KP^M vs 3TZ and LKR13 cells. The method, then: FIG. 2: Bortezomib sensitivity correlates with basal NF-κB activity in KP lung adenocarcinoma cell lines. […] 3TZ, diamond; LKR13, triangle; KP, solid lines; KPM, dashed lines. Error bars are SD (n=3). (2B) lung cancer cell lines with high basal NF-κB activity were sensitive to bortezomib. NF-κB p65 DNA-binding activity was determined by ELISA from nuclear extracts of KP cell lines and LKR13 cells (set as 1). Relative viability was measured after 5 nM bortezomib treatment, as in 2A. FIG. 17: Bay-117082 induces cell death In KP cells. […] (17B) Bay-117082 induces apoptosis in KP cells. Cells were treated with 10IJM Bay-117082 for 48 hours. […] Cell culture conditions were as described recently (30).

Assay [2] has as its system Bortezomib-resistant KP cell lines. The settings on record: upon bortezomib treatment; viability 24 hours, colonies 7 days.
Method: (12A) Relative cell viability in cell lines treated with increasing doses of Bortezomib for 24 hours. Cells lines were outgrown from Bortezomib resistant orthotopic tumors (resistant 1&2) or sensitive tumors (sensitive) as in FIG. 6C. Error bars are s.d. (n=3). (12B) Colony formation assay in Bortezomib-resistant cells. 104 cells were plated in 6-well plate and treated with indicated drug concentration. Plates were stained 7 days later with crystal violet solution. Drug-containing medium was refreshed every 4 days.
Cells were split into 96-well plates (5,000 cells per well). After 24 hours, cells were treated with bortezomib, and 24 hours later cell viability was measured by the Cell Titer Aqueous Kit (Promega) in triplicates. Vehicle control-treated cell values were set to 1 (100% viability).
Assay [3] concerns luciferase-tagged KP cells transplanted into immunocompetent recipient mice. As to the kind of experiment: Orthotopic lung tumor model, survival and bioluminescence imaging. The class given is in vivo, mouse. From the text:
FIG. 6: Imaging bortezomib response and resistance in an orthotopic lung tumor model. (6A) experimental design. Lung cancer cells derived from KP tumors were infected with a retrovirus expressing luciferase and transplanted into immunocompetent recipient mice by tail vein injection. (6B) Kaplan-Meier survival curve of control and bortezomib-treated recipient mice (n=6; P=1.4×10−5). A total of 10,000 cells were transplanted, and treatment started after 35 days. (6C) representative bioluminescence imaging of recipient mice (n=6) treated with vehicle control or bortezomib, as in 6B. D0 refers to the first treatment. Arrows indicate weekly bortezomib regimen.
FIG. 7: The NF-κB inhibitor Bay-117082 leads to lung tumor regression in vivo. (7A) quantitative PCR analysis of NF-κB target gene expression in KP cells treated with 10 μM Bay-117082 for indicated hours. Error bars are SD (n=3). (7B) Bay-117082 treatment leads to lung tumor regression and delays tumor progression in the orthotopic lung tumor model. A total of 50,000 luciferase-tagged KP cells were transplanted into recipient mice (n=6), and treatment was started at 19 days after transplantation (set at D0). Mice were treated with vehicle control or 10 mg/kg Bay-117082 by i.p. injection, and imaged at the indicated time points. Arrows indicate Bay-117082 injections. (7C) Bay-117082 prolongs survival in the KP model (n=6; P=0.008). “i.p. dosing” indicates treatment with 3 doses per week.
At indicated time points, mice were scanned for 15 min under isoflurane anesthesia, using a small animal eXplore Locus microCT (GE Healthcare) at 45-μm resolution, 80 kV, with 450-mA current (47). Images were acquired and processed using GE eXplore software. Bioluminescence imaging was performed as previously described (48). Mice were imaged for 60 seconds, and signals in the lung were quantified using Xenogen software.
To facilitate imaging of the bortezomib treatment response, we adapted a transplantation-based orthotopic lung cancer mouse model (37). As outlined in FIG. 6A, we infected KP cell lines with a retrovirus expressing firefly luciferase. The cells were transplanted into immunocompetent recipient mice by i.v. injection, resulting in the development of in situ lung tumors that could be imaged and quantified by bioluminescence imaging.
To determine whether bortezomib therapy was effective in the orthotopic model, we transplanted 10,000 KP cells into host mice and treated the mice 5 weeks later, either with control or with a weekly 4-dose regimen of bortezomib (37).

In a further assay the test system is KrasLSL-G12D/wt mice. Put plainly: Kaplan-Meier survival of K mice. The class given is in vivo, mouse. As to conditions: KrasLSL-G12D/wt cohort, weekly 1 mg/kg bortezomib; P=0.36.
Setting [4] is: orthotopic model, weekly bortezomib.

Method for KrasLSL-G12D/wt mice: To initiate lung tumors, cohorts of K or KP mice of 129svJae background were infected with 2.5×10^7 plaque-forming units of Adeno-Cre (University of Iowa) by intranasal inhalation, as described previously (2, 28). Mice were given bortezomib (LC Labs) in PBS [0.5% dimethylsulfoxide (DMSO)] at 1 mg/kg body weight i.v., as indicated. Bay-117082 (CalBiochem) was dissolved in DMSO, diluted in PBS as a fine suspension, and injected at 10 mg/kg body weight i.p., as indicated.
Using a cohort of KP mice, we treated tumor-bearing animals 8 weeks after Adeno-Cre infection with bortezomib once a week for 4 weeks (FIG. 10A).

For `CC(C)C[C@H](NC(=O)[C@H](Cc1ccccc1)NC(=O)c1cnccn1)B(O)O` [bortezomib, N-(2-pyrazine) carbonyl-L-phenylalanine-L-leucine boronic acid], in assay [1] (once a week for 4 weeks, 13 weeks), the “tumor response by the 4th dose” value is “insensitive to treatment”. For the same molecule, in assay [1] (once a week for 4 weeks, twice-weekly microCT, 10.5 weeks), the “tumor response after the first dose” value was “rapid KP tumor regression”. The “average decrease in tumor volume at D4 compared with D0” value in assay [1] (single dose 1 mg/kg i.v., 10 weeks after Adeno-Cre infection, microCT) was 55.4%. The “sensitivity in cell viability dose-response” value in the assay with KP and KP^M cell lines was “higher sensitivity”. For the same molecule, in assay [2], the “viability and colony formation of resistant cells compared with sensitive cells” value was “higher viability and increased colony formation”. The same molecule gave an average survival in assay [3] (10,000 KP cells transplanted, weekly 4-dose bortezomib from 5 weeks, control 47.0±2.0 days, P=1.4×10^−5) of 64.0 ± 5.4 days. In addition, the “bioluminescence tumor signal at day 2 and day 4” value in assay [3] (orthotopic model, after first bortezomib treatment) is recorded as “marked tumor regression”. Also, in assay [3] (setting [4]), the “effect of a 4th dose” value is “ineffective”; the “lung tumor signal after the 2nd and 3rd treatments” value is “still decreased or stabilized”. In addition, the survival result in the assay with KrasLSL-G12D/wt mice is listed as “no improvement in survival”.
